From PubChem BioAssay (NCI)
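Tested at 5 concentrations; 48 h exposure; 96-well plates; endpoints linearly interpolated, else capped at highest concentration. TGI: concentration producing complete growth inhibition.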

Legend:
Assay in all cases: inhibition of tumour cell growth, NCI panel, 48 h
SW-620 colon = test system: SW-620 colon
COLO 205 colon = test system: COLO 205 colon
SN12C renal = test system: SN12C renal
OVCAR-8 ovarian = test system: OVCAR-8 ovarian
HL-60(TB) leukemia = test system: HL-60(TB) leukemia
NCI-H460 lung = test system: NCI-H460 lung
NCI-H23 lung = test system: NCI-H23 lung
SNB-19 CNS = test system: SNB-19 CNS
MDA-MB-231 breast = test system: MDA-MB-231 breast
UACC-62 melanoma = test system: UACC-62 melanoma
OVCAR-5 ovarian = test system: OVCAR-5 ovarian
MDA-N = test system: MDA-N
UO-31 renal = test system: UO-31 renal
SK-MEL-5 melanoma = test system: SK-MEL-5 melanoma
MOLT-4 leukemia = test system: MOLT-4 leukemia
TK-10 renal = test system: TK-10 renal
HCT-116 colon = test system: HCT-116 colon
LOX IMVI melanoma = test system: LOX IMVI melanoma
MDA-MB-435 = test system: MDA-MB-435
KM12 colon = test system: KM12 colon
HCT-15 colon = test system: HCT-15 colon
NCI-H226 lung = test system: NCI-H226 lung
UACC-257 melanoma = test system: UACC-257 melanoma
SR leukemia = test system: SR leukemia
HCC-2998 colon = test system: HCC-2998 colon
SF-295 CNS = test system: SF-295 CNS
CAKI-1 renal = test system: CAKI-1 renal
A498 renal = test system: A498 renal
OVCAR-3 ovarian = test system: OVCAR-3 ovarian
MCF7 breast = test system: MCF7 breast
M14 melanoma = test system: M14 melanoma
IGROV1 ovarian = test system: IGROV1 ovarian
HS 578T breast = test system: HS 578T breast
EKVX NSCLC = test system: EKVX NSCLC
OVCAR-4 ovarian = test system: OVCAR-4 ovarian
U251 CNS = test system: U251 CNS
SNB-75 CNS = test system: SNB-75 CNS
BT-549 breast = test system: BT-549 breast
KM20L2 colon = test system: KM20L2 colon
HT29 colon = test system: HT29 colon
DLD-1 colon = test system: DLD-1 colon
DU-145 prostate = test system: DU-145 prostate
SK-OV-3 ovarian = test system: SK-OV-3 ovarian
SK-MEL-2 melanoma = test system: SK-MEL-2 melanoma
HOP-62 NSCLC = test system: HOP-62 NSCLC
K-562 leukemia = test system: K-562 leukemia
ACHN renal = test system: ACHN renal
A549 NSCLC = test system: A549 NSCLC
NCI/ADR-RES ovarian = test system: NCI/ADR-RES ovarian
HOP-92 NSCLC = test system: HOP-92 NSCLC
MALME-3M melanoma = test system: MALME-3M melanoma
SF-539 CNS = test system: SF-539 CNS
NCI-H522 lung = test system: NCI-H522 lung
LXFL 529 NSCLC = test system: LXFL 529 NSCLC
SF-268 CNS = test system: SF-268 CNS
786-0 renal = test system: 786-0 renal
RXF 393 renal = test system: RXF 393 renal
DMS 114 small cell lung = test system: DMS 114 small cell lung
CCRF-CEM leukemia = test system: CCRF-CEM leukemia
T-47D breast = test system: T-47D breast
M19-MEL melanoma = test system: M19-MEL melanoma
DMS 273 small cell lung = test system: DMS 273 small cell lung
RPMI-8226 leukemia = test system: RPMI-8226 leukemia
PC-3 prostate = test system: PC-3 prostate
SK-MEL-28 melanoma = test system: SK-MEL-28 melanoma
HOP-18 NSCLC = test system: HOP-18 NSCLC
SNB-78 CNS = test system: SNB-78 CNS

SMILES: NC(N)=NCCCC(NCc1c2ccccc2nc2ccccc12)C(=O)O (stereo not given)
- TGI (SW-620 colon): > 100 µM
- TGI (COLO 205 colon): > 100 µM
- TGI (SN12C renal): > 100 µM
- TGI (OVCAR-8 ovarian): > 86 µM
- TGI (HL-60(TB) leukemia): 44.1 µM
- TGI (NCI-H460 lung): > 100 µM
- TGI (NCI-H23 lung): > 100 µM
- TGI (SNB-19 CNS): > 100 µM
- TGI (MDA-MB-231 breast): > 100 µM
- TGI (UACC-62 melanoma): > 100 µM
- TGI (OVCAR-5 ovarian): > 100 µM
- TGI (MDA-N): > 100 µM
- TGI (UO-31 renal): > 100 µM
- TGI (SK-MEL-5 melanoma): > 62.2 µM
- TGI (MOLT-4 leukemia): 45 µM
- TGI (TK-10 renal): > 100 µM
- TGI (HCT-116 colon): > 100 µM
- TGI (LOX IMVI melanoma): 97.9 µM
- TGI (MDA-MB-435): > 100 µM
- TGI (KM12 colon): > 100 µM
- TGI (HCT-15 colon): > 100 µM
- TGI (NCI-H226 lung): > 100 µM
- TGI (UACC-257 melanoma): > 88.6 µM
- TGI (SR leukemia): > 83.2 µM
- TGI (HCC-2998 colon): > 100 µM
- TGI (SF-295 CNS): > 100 µM
- TGI (CAKI-1 renal): > 100 µM
- TGI (A498 renal): > 100 µM
- TGI (OVCAR-3 ovarian): > 100 µM
- TGI (MCF7 breast): > 100 µM
- TGI (M14 melanoma): > 100 µM
- TGI (IGROV1 ovarian): > 100 µM
- TGI (HS 578T breast): > 100 µM
- TGI (EKVX NSCLC): > 100 µM
- TGI (OVCAR-4 ovarian): > 84.7 µM
- TGI (U251 CNS): > 100 µM
- TGI (SNB-75 CNS): > 100 µM
- TGI (BT-549 breast): > 100 µM
- TGI (KM20L2 colon): 86.7 µM
- TGI (HT29 colon): > 66.4 µM
- TGI (DLD-1 colon): 50.5 µM
- TGI (DU-145 prostate): > 100 µM
- TGI (SK-OV-3 ovarian): > 100 µM
- TGI (SK-MEL-2 melanoma): > 100 µM
- TGI (HOP-62 NSCLC): > 100 µM
- TGI (K-562 leukemia): > 89.4 µM
- TGI (ACHN renal): > 100 µM
- TGI (A549 NSCLC): > 100 µM
- TGI (NCI/ADR-RES ovarian): > 100 µM
- TGI (HOP-92 NSCLC): > 83.5 µM
- TGI (MALME-3M melanoma): > 100 µM
- TGI (SF-539 CNS): > 100 µM
- TGI (NCI-H522 lung): 69.9 µM
- TGI (LXFL 529 NSCLC): > 100 µM
- TGI (SF-268 CNS): > 100 µM
- TGI (786-0 renal): > 100 µM
- TGI (RXF 393 renal): > 100 µM
- TGI (DMS 114 small cell lung): 79.4 µM
- TGI (CCRF-CEM leukemia): 75.1 µM
- TGI (T-47D breast): > 100 µM
- TGI (M19-MEL melanoma): > 100 µM
- TGI (DMS 273 small cell lung): > 100 µM
- TGI (RPMI-8226 leukemia): > 53.3 µM
- TGI (PC-3 prostate): > 100 µM
- TGI (SK-MEL-28 melanoma): > 100 µM

SMILES: NC1=NC(Cn2nc(-c3ccccc3)c3ccccc3c2=O)=NNC(=O)N1
- TGI (SW-620 colon): > 100 µM
- TGI (COLO 205 colon): > 100 µM
- TGI (SN12C renal): > 100 µM
- TGI (OVCAR-8 ovarian): > 100 µM
- TGI (NCI-H460 lung): > 100 µM
- TGI (NCI-H23 lung): > 100 µM
- TGI (SNB-19 CNS): > 100 µM
- TGI (UACC-62 melanoma): > 100 µM
- TGI (OVCAR-5 ovarian): > 100 µM
- TGI (HOP-18 NSCLC): > 100 µM
- TGI (UO-31 renal): > 100 µM
- TGI (SK-MEL-5 melanoma): > 100 µM
- TGI (MOLT-4 leukemia): > 100 µM
- TGI (TK-10 renal): > 100 µM
- TGI (HCT-116 colon): > 100 µM
- TGI (KM12 colon): > 100 µM
- TGI (HCT-15 colon): > 100 µM
- TGI (NCI-H226 lung): > 100 µM
- TGI (UACC-257 melanoma): > 100 µM
- TGI (SR leukemia): > 100 µM
- TGI (HCC-2998 colon): > 100 µM
- TGI (SF-295 CNS): > 100 µM
- TGI (CAKI-1 renal): > 100 µM
- TGI (A498 renal): > 100 µM
- TGI (SNB-78 CNS): > 100 µM
- TGI (OVCAR-3 ovarian): > 100 µM
- TGI (M14 melanoma): > 100 µM
- TGI (IGROV1 ovarian): > 100 µM
- TGI (OVCAR-4 ovarian): > 100 µM
- TGI (U251 CNS): > 100 µM
- TGI (SNB-75 CNS): > 100 µM
- TGI (HT29 colon): > 100 µM
- TGI (DLD-1 colon): > 100 µM
- TGI (SK-OV-3 ovarian): > 100 µM
- TGI (SK-MEL-2 melanoma): > 100 µM
- TGI (HOP-62 NSCLC): > 100 µM
- TGI (K-562 leukemia): > 100 µM
- TGI (ACHN renal): > 100 µM
- TGI (A549 NSCLC): > 100 µM
- TGI (HOP-92 NSCLC): > 100 µM
- TGI (MALME-3M melanoma): > 100 µM
- TGI (SF-539 CNS): > 100 µM
- TGI (NCI-H522 lung): > 100 µM
- TGI (LXFL 529 NSCLC): > 100 µM
- TGI (SF-268 CNS): > 100 µM
- TGI (786-0 renal): > 100 µM
- TGI (CCRF-CEM leukemia): > 100 µM
- TGI (M19-MEL melanoma): > 100 µM
- TGI (DMS 273 small cell lung): > 100 µM
- TGI (RPMI-8226 leukemia): > 100 µM
- TGI (SK-MEL-28 melanoma): > 100 µM

SMILES: COc1ccccc1C1c2cc3c(cc2OC2(OC)COC(=O)C12)OCO3 (stereo not given)
- TGI (SW-620 colon): > 100 µM
- TGI (COLO 205 colon): 67.3 µM
- TGI (SN12C renal): > 100 µM
- TGI (OVCAR-8 ovarian): > 74.6 µM
- TGI (HL-60(TB) leukemia): 18.5 µM
- TGI (NCI-H460 lung): > 100 µM
- TGI (NCI-H23 lung): > 100 µM
- TGI (SNB-19 CNS): > 77.6 µM
- TGI (MDA-MB-231 breast): > 100 µM
- TGI (UACC-62 melanoma): 60.1 µM
- TGI (OVCAR-5 ovarian): > 100 µM
- TGI (MDA-N): 5.51 µM
- TGI (UO-31 renal): 65.6 µM
- TGI (SK-MEL-5 melanoma): 59.3 µM
- TGI (MOLT-4 leukemia): > 46.2 µM
- TGI (TK-10 renal): > 92.4 µM
- TGI (HCT-116 colon): > 80.9 µM
- TGI (LOX IMVI melanoma): 67.1 µM
- TGI (MDA-MB-435): 5.74 µM
- TGI (KM12 colon): 45.5 µM
- TGI (HCT-15 colon): > 100 µM
- TGI (NCI-H226 lung): > 87.5 µM
- TGI (UACC-257 melanoma): > 100 µM
- TGI (SR leukemia): > 28.8 µM
- TGI (HCC-2998 colon): > 63.8 µM
- TGI (SF-295 CNS): 63.9 µM
- TGI (CAKI-1 renal): > 100 µM
- TGI (A498 renal): 54.4 µM
- TGI (OVCAR-3 ovarian): 69.3 µM
- TGI (MCF7 breast): > 65.7 µM
- TGI (M14 melanoma): 43.3 µM
- TGI (IGROV1 ovarian): > 100 µM
- TGI (HS 578T breast): 34.8 µM
- TGI (EKVX NSCLC): > 82.3 µM
- TGI (OVCAR-4 ovarian): > 95.9 µM
- TGI (U251 CNS): > 100 µM
- TGI (SNB-75 CNS): 43.1 µM
- TGI (BT-549 breast): > 100 µM
- TGI (HT29 colon): 22.9 µM
- TGI (DU-145 prostate): 69.4 µM
- TGI (SK-OV-3 ovarian): 70.1 µM
- TGI (SK-MEL-2 melanoma): 55.6 µM
- TGI (HOP-62 NSCLC): > 91.2 µM
- TGI (K-562 leukemia): > 45.6 µM
- TGI (ACHN renal): > 100 µM
- TGI (A549 NSCLC): > 100 µM
- TGI (NCI/ADR-RES ovarian): > 100 µM
- TGI (HOP-92 NSCLC): > 93.8 µM
- TGI (MALME-3M melanoma): > 100 µM
- TGI (SF-539 CNS): 33.4 µM
- TGI (NCI-H522 lung): > 27.3 µM
- TGI (SF-268 CNS): 83.9 µM
- TGI (786-0 renal): 72.1 µM
- TGI (RXF 393 renal): 44.2 µM
- TGI (CCRF-CEM leukemia): 75.6 µM
- TGI (T-47D breast): > 100 µM
- TGI (RPMI-8226 leukemia): 28.3 µM
- TGI (PC-3 prostate): > 92.7 µM
- TGI (SK-MEL-28 melanoma): 44.2 µM
